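GI50 marks 50% less growth. TGI marks complete inhibition of growth.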
Tests used:
Assay in all cases: DTP human tumour cell line panel, 384-well format
[1] = tested on: HCC-2998 colon
[2] = tested on: HOP-92 NSCLC
[3] = tested on: M14 melanoma
[4] = tested on: MALME-3M melanoma
[5] = tested on: MDA-MB-231 breast
[6] = tested on: MDA-MB-435 melanoma
[7] = tested on: MDA-MB-468 breast
[8] = tested on: NCI-H522 lung
[9] = tested on: SK-MEL-2 melanoma
[10] = tested on: SK-OV-3 ovarian
[11] = tested on: SR leukemia
[12] = tested on: SW-620 colon
[13] = tested on: TK-10 renal

CC(C)n1cc(-c2ccc3c(c2)N(C)CC3)c2c(NS(=O)(=O)c3ccn(C)n3)ccnc21
GI50 [1]: > 100 µM | TGI [1]: > 100 µM | GI50 [2]: > 62.9 µM | TGI [2]: > 100 µM | GI50 [3]: > 100 µM | TGI [3]: > 100 µM | GI50 [4]: > 100 µM | TGI [4]: > 100 µM | GI50 [5]: > 68.8 µM | TGI [5]: > 100 µM | GI50 [6]: > 93 µM | TGI [6]: > 100 µM | GI50 [7]: 56.8 µM | TGI [7]: > 100 µM | GI50 [8]: > 80.4 µM | TGI [8]: > 100 µM | GI50 [9]: > 100 µM | TGI [9]: > 100 µM | GI50 [10]: > 52.6 µM | TGI [10]: > 85.4 µM | GI50 [11]: 36.5 µM | TGI [11]: > 100 µM | GI50 [12]: > 51.5 µM | TGI [12]: > 81.7 µM | GI50 [13]: > 100 µM | TGI [13]: > 100 µM

Cc1nc2ccc(-n3ncc(C(=O)c4cc5ccccc5[nH]4)c3N)cc2[nH]1
GI50 [1]: 13.1 µM | TGI [1]: 30.8 µM | GI50 [2]: 10.3 µM | TGI [2]: 30.3 µM | GI50 [3]: 12.5 µM | TGI [3]: 28.4 µM | GI50 [4]: 13.1 µM | TGI [4]: 33.8 µM | GI50 [5]: 4.8 µM | TGI [5]: 44.9 µM | GI50 [6]: 11.2 µM | TGI [6]: 42.9 µM | GI50 [7]: 4.15 µM | TGI [7]: 16.7 µM | GI50 [8]: 5.33 µM | TGI [8]: 17.6 µM | GI50 [9]: 28.2 µM | TGI [9]: 44 µM | GI50 [10]: 11.3 µM | TGI [10]: 30.6 µM | GI50 [11]: 0.668 µM | TGI [11]: 1.58 µM | GI50 [12]: 10.4 µM | TGI [12]: 51.2 µM | GI50 [13]: 4.78 µM | TGI [13]: 20.5 µM
